# Data: patent US12084421B2, “Quinoline-based proteasome inhibitors and uses thereof” (Board of Trustees of Michigan State University, priority 2017, dated 2024)
# pIC50: −log10 of the molar value.
# Key:
# [1] = biological target: purified human 20S proteasome (CT-L activity) (Homo sapiens, UniProt P28074); experiment: Proteasomal CT-L activity measurement with Suc-LLVY-AMC; assay type: biochemical; settings: for pIC50: Suc-LLVY-AMC substrate, 37° C., 30 min
# Description: (§1) Proteasomal activity measurement: The fluorogenic substrates Suc-LLVY-AMC, Z-ARR-AMC, and Z-LLE-AMC were used to measure CT-L, T-L and casp-L proteasome activities, respectively. Assays were carried out in black, clear bottom 96 well plates in a 200 μL reaction volume containing 1 nM of purified human 20S proteasome in 50 mM Tris-HCL pH 7.5 and 0.03% SDS containing 50 IM fluorogenic substrate at 37° C. The rate of cleavage of fluorogenic peptide substrates was determined by monitoring the fluorescence of released aminomethylcoumarin using a SpectraMax M5e multiwall plate reader at an excitation wavelength of 380 nm and emission wavelength of 460 nm. Fluo-rescence was measured every minute over a period of 30 minutes and the maximum increase in fluorescence per minute was used to calculate specific activities of each sample.
# Compounds were screened in vitro using purified human 20S proteasome and the fluorogenic peptide substrate, Suc-LLVY-AMC, as the substrate for CT-L activity as described herein.
# The mechanism by which quinoline 7 inhibits the proteasome was investigated using Michaelis-Menton analysis to determine of KM and Vmax and then further illustrated using a Lineweaver-Burk double reciprocal plot of the kinetic data. Kinetic analysis of CT-L activity of purified 20S particles indicate that when the substrate (Suc-LLVY-AMC) concentration was increased incrementally and measurements were taken at five different concentrations of compound 7 or vehicle, the Vmax of the CT-L activity decreases and the KM increases, with the increasing concentration of […].
# [2] = biological target: purified human 20S proteasome (casp-L activity) (Homo sapiens, UniProt P28072); experiment: Proteasomal casp-L activity measurement with Z-LLE-AMC; assay type: biochemical; settings: Z-LLE-AMC substrate
# Description: as §1
# Quinoline 7 was subsequently evaluated for its inhibition of the proteasome's tryptic (b2)-like and caspase (b1)-like activity in vitro using purified human 20S proteasome and the following fluorogenic peptide as substrates: Boc-LRR-AMC (substrate for T-L activity) and Z-LLE-AMC (substrate for casp-L activity).
# HeLa NF-κB-luc cells = experiment: NF-κB-luc reporter assay, TNF-α stimulated; assay type: cell-based; settings: Homo sapiens, 30 min pretreatment, TNF-α 25 ng/mL, 8 h, Steady-Glo luciferase, read-out: IC50, NF-κB mediated gene transcription
# Description: NF-κB-luc reporter assay: HeLa NF-κB-luc cells (5.0×10^5 cells/mL) were seeded into a 96-well white opaque plate using DMEM medium supplemented with 5% fetal bovine serum, 500 U/mL penicillin, 100 μg/mL streptomycin, 1 mM sodium pyruvate, 0.2 mM L-glutamine, and 100 Ig/mL hygromycin B. After 24 h the cell culture medium was replaced with DMEM medium supplemented with 100 U/mL penicillin and 100 Ig/mL streptomycin. Cell cultures were pretreated with vehicle (1% DMSO), 50 IMpeptide aldehyde MG-132 (positive control) or quinoline (final concentrations were 50, 25, 12.5, 6.25, 3.13 and 1.56 IM) for 30 min at 37° C. in 5% CO2. TNF-α was added to a final concentration of 25 ng/mL and the samples were further incubated for 8 h at 37° C. in 5% CO2. […] The luminescence of each well was measured using a Veritas microplate luminometer. […] The data was analyzed using GraphPad Prism 4.0. The data was normalized to TNF-α activation and the EC50 values were calculated using the equation for the sigmodial curve for variable slope.
# In order to evaluate whether the inhibition of proteasome activity translated in cell culture, we evaluated compound 7 for inhibition of NE-KB regulation. […] In order to determine if quinoline 7 affects NE-KB mediated gene transcription, we evaluated quinoline 7 in HeLa NE-KB-luc cells. […]
# Kinetic solubility assay = assay type: physicochemical; settings: phosphate buffered saline with 1% DMSO, aqueous buffer, kinetic from dmso stock; estimated kinetic solubility, phosphate buffered saline pH 7.4, 1% DMSO, 2 hours at 37° C., absorbance 620 nm
# Description: Seven three-fold dilutions from 300 μM were prepared in phosphate buffered saline (ph=7.4) and 1% DMSO. Each concentration for each compound was tested three times (n=3). The compounds were incubated for 2 hours at 37° C. and the absorbance at 620 nm was evaluated for each dilution.
# [3] = Microsome (S9 fraction) stability assay; assay type: in vitro ADME; settings: mouse S9 fraction 0.25 mg/mL, 3 μM compound, NADPH, LC-MS/MS
Compound,pIC50 [1],solubility at 2 h (Kinetic solubility assay),Compound remaining after 30 min in mouse S9 [3],further results
"Cc1cc(C)c2cc(-c3ccccc3)cnc2c1 [Compound 4, 5,7-Dimethyl-3-phenylquinoline]",4.63,–,–,–
"Cc1ccc2nc(C)c(-c3ccccc3)cc2c1 [Compound 5, 2,6-Dimethyl-3-phenylquinoline]",4.72,–,–,–
"Cc1cc(C)c2cc(-c3ccccc3)c(C)nc2c1 [Compound 6, 2,5,7-trimethyl-3-phenylquinoline]",4.82,–,–,–
"Cc1cc(C)c2cc(C3=CCCCC3)c(C)nc2c1 [Compound 7, 3-cyclohexenyl-2,5,7-trimethylquinoline]",4.84,38.1 µM,18%,"Mechanism of inhibition (Michaelis-Menton / Lineweaver-Burk analysis) ([1]; Suc-LLVY-AMC varied, five concentrations of compound, Vmax decreases, KM increases): mixed-type inhibition; pIC50 [2]: 4.75; pIC50 (HeLa NF-κB-luc cells): 4.92"
"CCc1nc2cc(C)cc(C)c2cc1C1=CCCCC1 [Compound 8, 2-Ethyl-3-cyclohexenyl-5,7-dimethylquinoline]",4.70,–,–,–
"Cc1cc(C)c2cc(C3=CCCCC3)cnc2c1 [Compound 9, 3-Cyclohexenyl-5,7-dimethylquinoline]",4.86,–,–,–
Cc1cc(C)c2cc(C3CCCCC3)c(C)nc2c1 [Compound 11],5.09,129 µM,100%,–
"Cc1nc2ccc(Br)cc2cc1C1=CCCCC1 [Compound 16, 6-Bromo-3-cyclohexenyl-2-methylquinoline]",5.00,–,–,–
"Cc1ccc2nc(C)c(C3=CCCCC3)cc2c1 [Compound 19, 3-Cyclohexenyl-2,6-dimethylquinoline]",5.07,–,–,–
"CCCCc1ccc2nc(C)c(C3=CCCCC3)cc2c1 [Compound 20, 6-Butyl-3-cyclohexenyl-2-methylquinoline]",5.12,14.5 µM,12%,–
"CN(C)c1ccc2ncc(C3=CCCCC3)cc2c1 [Compound 21, 3-Cyclohexenyl-6-(N,N-dimethylamino)quinoline]",5.20,–,–,–

# Further lines, with some results ahead:
pIC50 [1],solubility at 2 h (Kinetic solubility assay),Compound remaining after 30 min in mouse S9 [3],Compound,further results
5.21,–,–,"Cc1nc2ccc(N(C)C)cc2cc1C1=CCCCC1 [Compound 22, 3-Cyclohexenyl-2-methyl-6-(N,N-dimethylamino) quinoline]",–
5.25,27.4 µM,5%,"CCc1nc2ccc(N(C)C)cc2cc1C1=CCCCC1 [Compound 23, 3-Cyclohexenyl-2-ethyl-6(N,N-dimethylamino)quinoline]",–
5.27,–,–,"Cc1nc2ccc(N3CCCCC3)cc2cc1C1=CCCCC1 [Compound 25, 3-Cyclohexenyl-2-methyl-6-piperidinylquinoline]",–
4.81,–,–,"COc1cc2nc(C)c(C3=CCCCC3)cc2c(OC)c1OC [Compound 27, 3-Cyclohexenyl-5,6,7-trimethoxy-2-methylquinoline]",–
5.26,–,–,"CN(C)c1ccc2ncc(C3CCCCC3)cc2c1 [Compound 28, 3-Cyclohexyl-6-(N,N-dimethylamino)quinoline]",–
5.17,138 µM,4%,"Cc1nc2ccc(N(C)C)cc2cc1C1CCCCC1 [Compound 29, 3-Cyclohexyl-2-methyl-6-(N,N-dimethylamino) quinoline]",–
5.11,11.7 µM,6%,"Cc1nc2ccc(C(C)C)cc2cc1C1=CCCCC1 [Compound 30, 3-Cyclohexenyl-6-isopropyl-2-methylquinoline]",–
4.73,–,–,"CCc1cc2cc(N(C)C)ccc2nc1CC [Compound 33, 2,3-Diethyl-N,N-dimethylquinoline]",–
5.00,121 µM,>100%,"Cc1nc2ccc(N(C)C)cc2cc1-c1ccccc1 [Compound 34, 2-methyl-3-phenyl-6-(N,N-dimethylamino) quinoline]",–
4.67,–,–,"CCCCc1ccc2nc(C)c(-c3ccccc3)cc2c1 [Compound 36, 6-Butyl-2-methyl-3-phenylquinoline]",–
